Laboratory results from the OPERA property sets (Mansouri et al. 2018).
Peptide text beside a SMILES is read from it.

SMILES | logP
COP(=S)(Oc1cc(Cl)c(Br)cc1Cl)c1ccccc1 (stereo not drawn) | 6.31
CCCC(O)CCC | 2.22
NC(=O)Nc1nc(-c2ccccc2)no1 | 1.76
CCOP(=S)(OCC)SCSC(C)(C)C | 4.48
CC(=O)c1ccccc1[N+](=O)[O-] | 1.28
CN(C)C(=O)Oc1ccccc1 | 1.56
CC1(C)C(C(=O)OC(C#N)c2cccc(Oc3ccccc3)c2)C1(C)C (stereo not drawn) | 5.7
COP(=S)(OC)Oc1ccc([N+](=O)[O-])c(C(C)C)c1 | 4.05
CC[C@H](C)[C@H](NC(=O)[C@@H](NC(C)=O)C(C)C)C(=O)NCC(N)=O (Ac-Val-Ile-Gly-NH2) | -0.45
CCOP(=O)(Cc1ccc(-c2nc3ccccc3s2)cc1)N1CCCC1=O (stereo not drawn) | 3
COC(=O)C=Cc1ccccc1 | 2.62
Cc1nnc(SCC2=C(C(=O)O)N3C(=O)[C@@H](NC(=O)Cn4cnnn4)[C@H]3SC2)s1 | -0.58
CBr | 1.19
NCCc1c[nH]c2ccccc12 | 1.55
CC(=O)Nc1ccccc1O | 0.72
CNC(=O)Oc1cccc(C(C)(C)C)c1 | 2.93
NC(=O)C(Cl)Cl | 0.19
CN(C)N=Nc1ccc(C(N)=O)cc1 | 1.2
Oc1ccc(Cn2cc[nH]c2=S)cc1 | 1.02
CC(Oc1ccccc1)C(=O)N[C@@H]1C(=O)N2[C@@H]1SC(C)(C)[C@@H]2C(=O)O (stereo partly drawn) | 2.2
NC(=O)c1cnc2ccccc2n1 | 0.98

SMILES | logP
O=C(O)CN1CCN(C(=O)Cn2c(=O)sc3ccc(Cl)cc32)CC1 | -0.71
O=C(O)c1cccc(Oc2ccccc2)c1 | 3.91
CC1OC(OC2CCC3(CO)C4CCC5(C)C(C6=CC(=O)OC6)CCC5(O)C4CCC3(O)C2)C(O)C(O)C1O (stereo not drawn) | -0.62
c1cc2snnc2c2c1CCNC2 | 1.35
Oc1cccc(Cl)c1Cl | 2.84
CC(C)NCC(O)COc1cccc2[nH]c3ccccc3c12 (stereo not drawn) | 3.59
CCc1cc(OP(=S)(OC)OC)ccc1[N+](=O)[O-] | 3.74
O=[N+]([O-])c1cc(Cl)c(O)c(Cl)c1 | 2.94
CCC(CC)C(=O)NC(N)=O | 0.91
Cc1ccc(S(=O)(=O)N(C)N=O)cc1 | 0.58
COc1cc(NCc2ccc3nc(N)nc(N)c3c2C)cc(OC)c1OC | 2.55
O[C@@H]1CCCC[C@H]1O | 0.08
CNC(=O)Oc1ccc(C(=O)OC)cc1 | 1.5
CCSc1ccc2c(c1)N(CCCN1CCN(C)CC1)c1ccccc1S2 | 5.41
CC12CC3CC(C)(C1)CC(N)(C3)C2 | 3.28
O=C(O)Cc1ccc(OCCCc2ccccc2)c(Cl)c1 | 3.9
c1cnccn1 | -0.26
C1=C(c2ccccc2)CCCC1 | 4.53
CCC(C)c1ccccc1O (stereo not drawn) | 3.27
CCOCCCl | 0.98
CC(=O)Oc1ccccc1C(C)C | 2.78

SMILES | logP
CCOC(=O)N(C)C | 0.89
COc1ccccc1C(N)=O | 0.86
CC1=NCCN1CCO | 0.04
CCCS(=O)(=O)CCn1c([N+](=O)[O-])cnc1C | 0.23
NCCCc1ccccn1 | 0.49
O=C(O)CCCCCC(=O)O | 0.61
COc1ccc(NS(=O)(=O)c2ccc(N)cc2)cc1 | 1.51
ClCCCCl | 2
CCOC(=O)C(=O)Nc1ccccc1 | 1.48
CCn1nnc2ccccc21 | 1.58
N#CCN | -1.37
CCc1ccc([N+](=O)[O-])cc1 | 3.03
CN(C)C(N(C)C)=S(I)c1c(Cl)cccc1Cl (stereo not drawn) | 0
CC1(C)C=Cc2ccccc2O1 | 3.31
CCCCNC(=O)n1c(NC(=O)OC)nc2ccccc21 | 2.12
NC(=O)Nc1ccc(Br)cc1 | 1.98
N#CCC(=O)O | -0.76
CS(C)(=O)=O | -1.41
CSc1ccccc1 | 2.74
N=C(N)NC(=O)Nc1ccc(Cl)cc1 | 1.78
O=C(O)CCCc1c[nH]c2ccccc12 | 2.3

SMILES | logP
CCC(=O)OCC(=O)[C@@]1(OC(=O)CC)[C@@H](C)C[C@H]2[C@@H]3CCC4=CC(=O)C=C[C@]4(C)[C@@]3(F)[C@@H](O)C[C@@]21C | 4.07
CCCC1(CC)C(=O)NC(=O)NC1=O | 0.66
Cc1ccc(C(O)c2ccccc2)cc1 (stereo not drawn) | 3.13
[O-][n+]1ccccc1 | -1.2
Cc1cc(=O)oc2cc(O)ccc12 | 1.9
c1ccc2c(c1)Cc1ccccc1-2 | 4.18
Cc1cc(Cl)ccc1O | 2.78
CNC(=O)Oc1ccccc1C | 1.46
CN(C)N=Nc1cccc(C(F)(F)F)c1 | 3.78
O=C(C(=O)c1ccccc1)c1ccccc1 | 3.38
CN(C)C(=O)OCc1ccc(C(F)(F)F)cc1 | 3.08
CCNC(N)=O | -0.74
Oc1ccccc1F | 1.71
CC(=O)Nc1ccc(O)cc1C | 0.17
COc1cc(S(C)=O)ccc1-c1nc2ccncc2[nH]1 (stereo not drawn) | 1.25
CC(=O)N(c1ccccc1)c1ccccc1 | 2.02
Brc1ccsc1 | 2.62
C/C=N/O | -0.13
COc1ccc(C=O)cc1O | 0.97
CC(=O)N[C@@H](Cc1c[nH]c2ccccc12)C(=O)N[C@@H](C)C(=O)N[C@H](C(N)=O)C(C)C (Ac-Trp-Ala-Val-NH2) | 0.36
